Experimental data taken from the NIST ThermoML archive (doi:10.1021/je9006579).

Columns and labels:
[1] = molar heat capacity at constant pressure; xn = mol fraction of the nth substance listed; conditions: 101 kPa, Liquid
[2] = molar heat capacity at constant pressure; conditions: 101.33 kPa, Liquid, Cooling curve

C1N2CN3CN1CN(C2)C3 [1,3,5,7-tetraazaadamantane] + CC(=O)O
molar heat capacity at constant pressure [J/K/mol], [1], Vacuum adiabatic calorimetry
Conditions	x1 = 0.022	x1 = 0.0454	x1 = 0.0703	x1 = 0.0967	x1 = 0.1249	x1 = 0.1551	x1 = 0.1873	x1 = 0.2221
308.15 K	137.35	144.8	151.94	159.76	170.64	180.97	191.09	203.69
313.15 K	142.53	150.32	157.16	165.58	176.29	187.61	198.06	210.89
318.15 K	147.51	155.25	162.14	170.38	181.92	193.63	203.66	216.63
323.15 K	152.45	160.18	166.78	175.7	186.63	198.28	209.59	222.76
328.15 K	157.24	165.08	172	180.88	191.96	204.18	214.96	–
333.15 K	161.64	169.05	176.96	185.28	197.37	209.36	220.93	235.17

CC(=O)O [acetic acid]
[2]
Conditions	molar heat capacity at constant pressure [J/K/mol]
313.15 K	135.5
333.15 K	137.21

CC(=O)O [acetic acid] + CC(=O)OC(C)=O
[1], Cooling curve, x2 = 0
Conditions	molar heat capacity at constant pressure [J/K/mol]
308.15 K	134.93
313.15 K	135.5
318.15 K	136
323.15 K	136.35
328.15 K	136.87
333.15 K	137.21

CC(=O)OC(C)=O [ethanoic anhydride]
[2]
Conditions	molar heat capacity at constant pressure [J/K/mol]
313.15 K	200.73
333.15 K	204.34
